{"source": "ChEMBL document CHEMBL5727102", "about": "“Compounds and methods for inhibiting Cif virulence factor” (2019)", "assay": "Biochemical Characterization of Cif Inhibitors: The first step in characterizing the two compounds identified by high throughput screening was to verify that the inhibition was reproducible using fresh preparations. Chemical libraries are often stored for extended periods of time, which can lead to breakdown products contributing to the assay outcome. While the inhibition observed with a fresh …", "data": [{"smiles": "NC(Cc1cc(I)c(Oc2cc(I)c(O)c(I)c2)c(I)c1)C(=O)O", "note": "(stereo unspecified) [THYROXINE]", "values": [{"measurement": "IC50", "value": "> 100", "unit": "µM"}]}]}
